Key:
[1] = Inhibition of Baker's yeast alpha-glucosidase pre-incubated for 10 mins before para-nitrophenyl-alpha-D-glucopyranoside substrate addition; design: species or system Saccharomyces cerevisiae
[2] = Inhibition of rat intestinal maltase using maltose substrate incubated for 10 mins
[3] = molecular target: Sucrase-isomaltase, intestinal (Rattus norvegicus, UniProt P23739); experiment: Inhibition of rat intestinal sucrase using sucrose substrate incubated for 10 mins
[4] = Inhibition of alpha-glucosidase (unknown origin); design: species or system Homo sapiens

Sequence of Sucrase-isomaltase, intestinal (P23739 1-1013 limits assumed): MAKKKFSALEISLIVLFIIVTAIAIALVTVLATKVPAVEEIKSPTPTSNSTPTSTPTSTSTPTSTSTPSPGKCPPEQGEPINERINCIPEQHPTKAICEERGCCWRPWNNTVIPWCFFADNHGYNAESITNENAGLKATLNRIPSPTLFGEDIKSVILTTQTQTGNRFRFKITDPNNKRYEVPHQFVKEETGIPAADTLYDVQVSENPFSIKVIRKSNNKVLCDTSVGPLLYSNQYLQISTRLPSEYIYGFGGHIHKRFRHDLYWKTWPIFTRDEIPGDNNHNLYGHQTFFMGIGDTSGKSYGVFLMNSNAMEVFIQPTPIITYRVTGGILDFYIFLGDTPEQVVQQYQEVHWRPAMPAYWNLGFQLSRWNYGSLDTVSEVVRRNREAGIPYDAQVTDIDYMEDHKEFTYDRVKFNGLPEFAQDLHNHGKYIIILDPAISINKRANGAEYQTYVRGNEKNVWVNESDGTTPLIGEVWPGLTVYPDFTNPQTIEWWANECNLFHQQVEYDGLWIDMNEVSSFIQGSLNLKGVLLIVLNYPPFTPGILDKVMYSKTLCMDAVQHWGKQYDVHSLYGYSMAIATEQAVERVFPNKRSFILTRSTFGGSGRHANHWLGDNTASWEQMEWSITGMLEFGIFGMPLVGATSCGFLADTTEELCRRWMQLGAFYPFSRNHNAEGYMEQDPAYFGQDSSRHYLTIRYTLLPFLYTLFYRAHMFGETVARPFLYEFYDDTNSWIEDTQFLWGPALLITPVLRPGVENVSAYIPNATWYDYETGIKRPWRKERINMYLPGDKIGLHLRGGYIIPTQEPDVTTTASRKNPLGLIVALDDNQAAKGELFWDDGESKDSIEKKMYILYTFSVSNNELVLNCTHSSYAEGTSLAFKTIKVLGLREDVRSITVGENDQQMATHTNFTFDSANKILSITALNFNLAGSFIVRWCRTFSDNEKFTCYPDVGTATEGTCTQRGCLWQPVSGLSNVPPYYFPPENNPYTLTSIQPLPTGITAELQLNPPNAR
Sequence of Sucrase-isomaltase, intestinal (P23739 1014-1841 limits assumed): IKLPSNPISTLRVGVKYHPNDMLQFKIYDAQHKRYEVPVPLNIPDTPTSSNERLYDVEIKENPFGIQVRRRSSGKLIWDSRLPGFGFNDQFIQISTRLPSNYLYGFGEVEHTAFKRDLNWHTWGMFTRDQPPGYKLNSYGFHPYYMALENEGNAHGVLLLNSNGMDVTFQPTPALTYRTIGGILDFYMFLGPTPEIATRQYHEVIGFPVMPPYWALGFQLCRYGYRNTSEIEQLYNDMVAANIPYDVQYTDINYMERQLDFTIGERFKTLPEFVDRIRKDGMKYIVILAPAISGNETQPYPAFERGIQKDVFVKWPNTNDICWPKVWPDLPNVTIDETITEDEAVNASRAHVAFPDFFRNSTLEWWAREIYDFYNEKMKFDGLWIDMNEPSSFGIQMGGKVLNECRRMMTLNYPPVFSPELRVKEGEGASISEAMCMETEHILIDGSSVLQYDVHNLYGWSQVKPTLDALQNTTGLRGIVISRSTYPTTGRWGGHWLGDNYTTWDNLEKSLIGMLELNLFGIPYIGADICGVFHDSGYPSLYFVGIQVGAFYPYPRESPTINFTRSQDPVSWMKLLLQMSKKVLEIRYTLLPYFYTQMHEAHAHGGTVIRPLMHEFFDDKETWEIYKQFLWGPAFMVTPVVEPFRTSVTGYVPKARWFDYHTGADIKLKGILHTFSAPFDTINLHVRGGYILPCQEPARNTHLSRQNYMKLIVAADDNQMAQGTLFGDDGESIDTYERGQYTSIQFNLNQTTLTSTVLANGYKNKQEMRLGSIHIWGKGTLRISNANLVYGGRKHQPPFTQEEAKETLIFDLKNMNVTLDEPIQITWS

Row | Structure (SMILES) | IC50 [1] [µM] | IC50 [2] [µM] | IC50 [3] [µM] | IC50 [4] [µM]
1 | N[C@H]1C[C@@H](O)[C@H](O)[C@@H](O)[C@H]1O | 2890 | 5.8 | 7.3 | –
2 | N[C@@H]1C[C@@H](O)[C@H](O)[C@@H](O)[C@H]1O | 12.5 | 4.4 | 6.8 | –
3 | O[C@@H]1[C@@H](O)[C@H](O)C[C@H](N[C@H]2C[C@H](O)[C@@H](O)[C@H](O)[C@@H]2O)[C@@H]1O | 40.1 | 3.6 | 4 | –
4 | O[C@H]1[C@H](O)[C@@H](N[C@H]2C=C[C@@H](O)[C@@H](O)[C@@H]2O)C=C[C@H]1O | – | – | – | 1400
5 | CC(=O)N([C@H]1C=C[C@@H](O)[C@@H](O)[C@@H]1O)[C@H]1C=C[C@@H](O)[C@@H](O)[C@@H]1O | – | – | – | 1350
6 | CC(=O)N([C@H]1[C@H](O)[C@H](O)[C@@H](O)[C@@H](O)[C@@H]1O)[C@H]1[C@H](O)[C@H](O)[C@@H](O)[C@@H](O)[C@@H]1O | – | – | – | 370
7 | O[C@@H]1[C@@H](O)[C@@H](O)[C@H](N[C@H]2[C@H](O)[C@H](O)[C@@H](O)[C@@H](O)[C@@H]2O)[C@@H](O)[C@@H]1O | – | – | – | > 2000
8 | N[C@H]1[C@H](O)[C@H](O)[C@@H](O)[C@@H](O)[C@@H]1N[C@H]1[C@H](O)[C@H](O)[C@@H](O)[C@@H](O)[C@@H]1O | – | – | – | > 2000
9 | OC1CC(N[C@H]2C[C@@H](O)[C@H](O)[C@@H](O)[C@H]2O)[C@@H](O)[C@@H](O)[C@@H]1O (single isomer, unassigned) | 32.3 | 3.1 | 3.7 | –
10 | C[C@H]1O[C@H](O[C@H]2[C@H](O)[C@@H](O)[C@@H](O[C@H]3[C@H](O)[C@@H](O)C(O)O[C@@H]3CO)O[C@@H]2CO)[C@H](O)[C@@H](O)[C@@H]1N[C@H]1C=C(CO)[C@@H](O)[C@H](O)[C@H]1O (some centres undefined) [ACARBOSE] | 404 | 1.5 | – | –

From ChEMBL document CHEMBL3351659, “Amine-linked diquercitols as new α-glucosidase inhibitors” (Bioorg Med Chem Lett, 2014)
